Columns and labels:
Format in all cases: in vivo, mouse
[1] = tested on: Acute Renal Disease (Cisplatin Nephropathy) Animal Model; experiment: Cisplatin nephropathy model, histopathological study (HE staining); conditions: 10 mg/kg 1 day after cisplatin
Method: (§1) In Tables 13 to 15, the experimental results are expressed in mean±standard error. The RT-PCR results were corrected with the amount of β-Actin as an endogenous control gene. With reference to statistically significant difference, an unpaired test between two groups (Student's t-test) was conducted for comparison between two groups, and one-way analysis of variance was conducted and then a Dunnett test was conducted for comparison among multiple groups. Further, in the histopathological study, a Mann-Whitney U test was conducted, and in all cases, a significance level of 5% or less (P<0.05) was regarded as significant difference.
10 mg/kg of SMTP-7 was administered 1 day after administration of cisplatin, and 3 days later, the kidney was isolated by the same method as in the evaluation of real time RT-PCR, and the histopathological study was conducted.
Formalin-fixed kidney was permeated with paraffin using an automatic embedding device to produce a paraffin block. The paraffin block was sliced into 3 μm sections with a microtome, and placed on a slide glass. Then, the sections were stretched with a paraffin stretcher at 52° C., and sufficiently dried overnight in a paraffin melter at 37° C. After deparaffinization and washing with water, the sections were stained with a Mayer's hematoxylin staining solution for 1 minute and washed with running water for 15 minutes. Thereafter, the sections were stained with an eosin staining solution for 45 seconds, and dehydrated with 80% to 100% ethanol, followed by clearing with xylene and sealing with marinol. Each specimen was examined microscopically at a magnification of 50 using an optical microscope. The degree of damage was examined microscopically at a magnification of 100 and 5 fields of view (1 field=2 mm, 5 fields=10 mm) and scored according to the following criteria. • Score 0: No significant change • Score 1: damage range 1 mm or less • Score 2: damage range 1 to 2 mm • Score 3: damage range 2 to 5 mm • Score 4: damage range 5 mm or more

[2] = tested on: Acute Renal Disease (Cisplatin Nephropathy) Animal Model; experiment: Test using acute renal disease (cisplatin nephropathy) animal model, BUN and sCr; conditions: mean±SE
Method: A male ddY strain mouse (30 to 40 g) was used as an experimental animal. Under anesthesia with isoflurane, cisplatin (20 mg/kg) was injected into the femoral vein at a constant rate over 15 minutes to induce nephropathy. 3 days later, blood was collected from the descending vena cava, and after separating serum, blood urea nitrogen (BUN) and serum creatinine (sCr) were measured to evaluate renal function. Further, the kidney was isolated after perfusion, RNA was extracted, reverse transcription was conducted, real-time RT-PCR was conducted using the produced cDNA as a template, and the effect on TNF-α mRNA expression in renal tissues was also studied. A group to which physiological saline was administered instead of cisplatin was designated as the sham group.
In order to study the timing of administration, a drug (10 mg/kg) was injected into the femoral vein at a constant rate simultaneously with cisplatin, or 1 or 2 days later. In order to study dose relationship, a drug (0.1 mg/kg, 1 mg/kg, or 10 mg/kg) was injected to the femoral vein at a constant rate.
Further, in order to study the effect on TNF-α mRNA expression and histopathological study, a drug (10 mg/kg) was similarly administered 1 day after administration of cisplatin.
The collected blood was centrifuged at 3000 rpm for 15 minutes, serum was separated, and BUN and sCr were measured. In the measurement, BUN was measured using Urea B-test Wako (manufactured by Wako Pure Chemical Industries, Ltd.) and a QuantiChrom Urea Assay Kit (manufactured by Funakoshi Co., Ltd.), and sCr was measured using Lab Assay Creatinine (manufactured by Wako Pure Chemical Industries, Ltd.).
as §1

[3] = tested on: Acute Renal Failure Animal Model; experiment: Acute renal failure animal model, pathological tissue specimen (HE staining) lesion scores; conditions: 10 mg/kg
Method: 24 hours after the ischemia and reperfusion processes, urine was collected for 24 hours using a metabolic cage, measurement of body weight was conducted, and blood was collected. Thereafter, nephrectomy was conducted, and formalin-fixed kidney was permeated with paraffin using an automatic embedding device to produce a paraffin block. The paraffin block was sliced into 3 μm sections with a microtome, and placed on a slide glass. Then, the sections were stretched with a paraffin stretcher at 52° C., and sufficiently dried overnight in a paraffin melter at 37° C. After deparaffinization and washing with water, the sections were stained with a Mayer's hematoxylin staining solution for 1 minute and washed with running water for 15 minutes. Thereafter, the sections were stained with an eosin staining solution for 45 seconds, and dehydrated with 80% to 100% ethanol, followed by clearing with xylene and sealing with marinol. Each specimen was examined microscopically at a magnification of 50 using an optical microscope. With respect to tubular dilatation, tubular necrosis, and tubular casts in the cortex, outer zone of outer medulla, and inner zone of outer medulla, the percentage of lesions in each site was evaluated according to the following criteria.
In Table 12, the experimental results are expressed in mean±standard error in eight mice in each group. For comparison among multiple groups, firstly, one-way analysis of variance (ANOVA) was conducted, and then a Bonferroni test was conducted, if significant difference was recognized. Significant difference was recognized with a significance level of less than 5% (P<0.05).

[4] = Score 1: damage range 1 mm or less
[5] = score 0 (no significant change) to 4 (damage range 5 mm or more), N 7
[6] = Administration one day later (1 day): 10 mg/kg femoral vein after cisplatin 20 mg/kg, timing study Table 13
[7] = Administration two days later (2 day): 10 mg/kg femoral vein after cisplatin 20 mg/kg
[8] = Coadministration: 10 mg/kg femoral vein simultaneously with cisplatin 20 mg/kg, blood 3 days after cisplatin
[9] = TNF-α study Table 15: 10 mg/kg 1 day after cisplatin
[10] = dose relationship study Table 14: 0.1 mg/kg femoral vein 1 day after cisplatin, 0.1 mg/kg
[11] = dose relationship study Table 14: 1 mg/kg femoral vein 1 day after cisplatin, 1 mg/kg
[12] = dose relationship study Table 14: 1 mg/kg femoral vein 1 day after cisplatin, listed as SMPT-7, 1 mg/kg
[13] = dose relationship study Table 14: 10 mg/kg femoral vein 1 day after cisplatin, 10 mg/kg
[14] = dose relationship study Table 14: 10 mg/kg femoral vein 1 day after cisplatin, listed as SMPT-7, 10 mg/kg
[15] = points 0 (no lesion) to 4 (severe, 50% or more), mean±SE, 8 mice

CC(C)=CCC/C(C)=C/CC[C@@]1(C)Oc2c(c(O)cc3c2CN(CCC[C@@H](C(=O)O)N2Cc4c(cc(O)c5c4O[C@](C)(CC/C=C(\C)CCC=C(C)C)[C@@H](O)C5)C2=O)C3=O)C[C@@H]1O [SMTP-7]
Degeneration Necrosis, animals with Score 0 ([1]; Score 0: No significant change): 2/7
Regeneraed tubules, animals with Score 0 ([1]; Score 0: No significant change): 7/7
Tublar dilatatuon (Hyoline casts), animals with Score 0 ([1]; Score 0: No significant change): 6/7
Degeneration Necrosis, animals with Score 1 [1, 4]: 2/7
Tublar dilatatuon (Hyoline casts), animals with Score 1 [1, 4]: 1/7
Degeneration Necrosis, animals with Score 2 ([1]; Score 2: damage range 1 to 2 mm): 1/7
Degeneration Necrosis, animals with Score 3 ([1]; Score 3: damage range 2 to 5 mm): 1/7
Degeneration Necrosis, animals with Score 4 ([1]; Score 4: damage range 5 mm or more): 1/7
Histopathological changes in the proximal tubules, result in words ([1]; compared to Control group): the level was lower than that in the Control group and no significant difference was recognized
Degeneration Necrosis, Mean score [1, 5]: 1.6
Regeneraed tubules, Mean score [1, 5]: 0.0
Tublar dilatatuon (Hyoline casts), Mean score [1, 5]: 0.1
BUN [2, 6]: 44.5 ± 2.19 mg/dL
sCr [2, 6]: 0.80 ± 0.07 mg/dL
BUN [2, 7]: 74.2 ± 17.8 mg/dL
sCr [2, 7]: 0.78 ± 0.18 mg/dL
BUN [2, 8]: 66.3 ± 9.23 mg/dL
sCr [2, 8]: 0.81 ± 0.09 mg/dL
BUN [2, 9]: 55.9 ± 5.20 mg/dL
sCr [2, 9]: 0.41 ± 0.07 mg/dL
BUN [2, 10]: 57.0 ± 5.47 mg/dL
sCr [2, 10]: 0.78 ± 0.08 mg/dL
BUN [2, 11]: 45.0 ± 6.28 mg/dL
sCr [2, 11]: 0.65 ± 0.09 mg/dL
BUN [2, 12]: 45.0 ± 6.28 mg/dL
sCr [2, 12]: 0.65 ± 0.09 mg/dL
BUN [2, 13]: 32.1 ± 4.63 mg/dL
sCr [2, 13]: 0.53 ± 0.03 mg/dL
BUN [2, 14]: 32.1 ± 4.63 mg/dL
sCr [2, 14]: 0.53 ± 0.03 mg/dL
Histopathological changes (lesion changes), result in words ([3]; compared to control group): lesion changes other than the lesion change in tubular casts in the renal cortex were significantly improved
Tubular cast score, Cortex [3, 15]: 0.9 ± 0.1
Tubular cast score, Inner zone of outer medulla [3, 15]: 1.0 ± 0.2
Tubular cast score, Outer zone of outer medulla [3, 15]: 0.9 ± 0.1
Tubular dilatation score, Cortex [3, 15]: 2.0 ± 0.3
Tubular dilatation score, Inner zone of outer medulla [3, 15]: 1.0 ± 0.2
Tubular dilatation score, Outer zone of outer medulla [3, 15]: 1.4 ± 0.4
Tubular necrosis score, Cortex [3, 15]: 0.4 ± 0.2
Tubular necrosis score, Inner zone of outer medulla [3, 15]: 0.5 ± 0.2
Tubular necrosis score, Outer zone of outer medulla [3, 15]: 0.4 ± 0.2

Reference: patent publication US20250099427A1, “Drug and Method of Treating or Preventing Renal Disease Using Drug” (Showa University, priority 2018, published 2025)
